Literature values, collected in US20150275270A1, “COMPOSITIONS AND METHODS FOR THE ANALYSIS OF DEGRADED NUCLEIC ACIDS” (ALTHEADX, INC., priority 2005, published 2015).

Details: clinical studies / post-marketing reports

| Compound | drug-induced hepatotoxicity (clinical reports) |
| --- | --- |
| Cc1c(C)c2c(c(C)c1O)CCC(C)(COc1ccc(CC3SC(=O)NC3=O)cc1)O2 (stereo not drawn) [Troglitazone, troglitazone] | severe idiosyncratic hepatocellular injury |
| CCc1ccc(CCOc2ccc(CC3SC(=O)NC3=O)cc2)nc1 (stereo not drawn) [pioglitazone] | no evidence of drug-induced hepatotoxicity |
| CN(CCOc1ccc(CC2SC(=O)NC2=O)cc1)c1ccccn1 (stereo not drawn) [rosiglitazone] | no evidence of drug-induced hepatotoxicity |
